pEC50, pIC50: −log10 of the molar value. In brackets after ≈: the same amount, converted by molar mass.
Columns and labels:
[1] = Ratio of drug level from liver to plasma in po dosed rat after 24 hrs; format: ADME, organism-based
[2] = Half life in rat at 2 mg/kg, iv; format: ADME, organism-based; parameters: dose 2 mg/kg, route intravenous; details: in vivo
[3] = Drug concentration in rat liver at 5 mg/kg, po after 6 hrs; format: ADME, organism-based; parameters: dose 5 mg/kg, route oral; details: read-out: Drug uptake
[4] = tested on: Hepatitis C virus; assay: Antiviral activity against HCV genotype 1b isolate con1 infected in human 2209-23 cells assessed as inhibition of [3H]thymidine incorporation into DNA by scintillation proximity assay in presence of 40% human serum albumin; format: functional, organism-based, Hepacivirus hominis; details: isolate Con1, 2209-23
[5] = Cmax in male rat at 500 mg/kg, po after 7 days; format: ADME, organism-based; parameters: dose 500 mg/kg, route oral; details: in vivo
[6] = Clearance in dog at 1 mg/kg, iv; format: ADME, organism-based, Canis lupus familiaris; parameters: dose 1 mg/kg, route intravenous; details: in vivo
[7] = Cmin (24 hrs) in male rat at 100 mg/kg, po after 1 day; format: ADME, organism-based; parameters: dose 100 mg/kg, route oral; details: in vivo, read-out: Cmin
[8] = Cmax in female rat at 100 mg/kg, po after 1 day; format: ADME, organism-based; parameters: dose 100 mg/kg, route oral; details: in vivo
[9] = tested on: Hepatitis C virus; assay: Ratio of EC50 for HCV genotype 1b isolate con1 in presence of human serum albumin to EC50 for HCV genotype 1b isolate con1 in presence of fetal bovine serum; format: functional, Hepacivirus hominis
[10] = Cmax in rat at 2 mg/kg, iv; format: ADME, organism-based; parameters: dose 2 mg/kg, route intravenous; details: in vivo
[11] = Cmax in female rat at 10 mg/kg, po after 7 days; format: ADME, organism-based; parameters: dose 10 mg/kg, route oral; details: in vivo
[12] = AUC in female rat at 100 mg/kg, po after 7 days; format: ADME, organism-based; parameters: dose 100 mg/kg, route oral; details: plasma
[13] = Drug concentration in rat liver at 5 mg/kg, po after 2 hrs; format: ADME, organism-based; parameters: dose 5 mg/kg, route oral; details: read-out: Drug uptake
[14] = AUC in dog at 1 mg/kg, iv; format: ADME, organism-based, Canis lupus familiaris; parameters: dose 1 mg/kg, route intravenous; details: plasma
[15] = AUC (0 to 24 hrs) in female rat at 10 mg/kg, po after 1 day; format: ADME, organism-based; parameters: time < 24 hr, dose 10 mg/kg, route oral; details: plasma
[16] = AUC in rat at 2 mg/kg, iv; format: ADME, organism-based; parameters: dose 2 mg/kg, route intravenous; details: plasma
[17] = Clearance in rat at 2 mg/kg, iv; format: ADME, organism-based; parameters: dose 2 mg/kg, route intravenous; details: in vivo
[18] = Cmax in female dog at 2 mg/kg, po dosed as nanosized particles; format: ADME, organism-based, Canis lupus familiaris; parameters: dose 2 mg/kg, route oral; details: in vivo
[19] = target: serum albumin (Homo sapiens, UniProt P02768); assay: Binding affinity to human serum albumin; format: ADME; details: read-out: PB (converted)
serum albumin, sequence (P02768 whole entry): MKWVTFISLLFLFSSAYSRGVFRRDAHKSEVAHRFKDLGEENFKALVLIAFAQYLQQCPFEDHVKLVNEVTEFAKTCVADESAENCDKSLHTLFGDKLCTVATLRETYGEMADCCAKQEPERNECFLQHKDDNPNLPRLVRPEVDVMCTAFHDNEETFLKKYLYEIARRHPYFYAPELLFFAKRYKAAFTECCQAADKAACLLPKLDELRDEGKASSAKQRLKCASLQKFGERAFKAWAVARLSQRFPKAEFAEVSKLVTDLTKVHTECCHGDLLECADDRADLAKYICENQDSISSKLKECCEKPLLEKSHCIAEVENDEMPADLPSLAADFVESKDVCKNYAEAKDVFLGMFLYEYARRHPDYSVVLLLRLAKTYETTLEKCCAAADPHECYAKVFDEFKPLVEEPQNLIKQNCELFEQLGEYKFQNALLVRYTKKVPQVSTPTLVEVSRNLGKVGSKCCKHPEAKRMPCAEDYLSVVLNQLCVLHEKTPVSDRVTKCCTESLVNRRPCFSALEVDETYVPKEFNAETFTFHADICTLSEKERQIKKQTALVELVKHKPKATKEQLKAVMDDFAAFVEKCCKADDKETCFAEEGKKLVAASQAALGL

[20] = AUC (0 to 24 hrs) in male rat at 500 mg/kg, po after 1 day; format: ADME, organism-based; parameters: time < 24 hr, dose 500 mg/kg, route oral; details: plasma
[21] = AUC in dog at 1 mg/kg, po; format: ADME, organism-based, Canis lupus familiaris; parameters: dose 1 mg/kg, route oral; details: plasma
[22] = Metabolic stability in dog liver microsomes; format: ADME, Canis lupus familiaris, Microsome; details: read-out: Stability
[23] = Metabolic stability in rat liver microsomes; format: ADME, Microsome; details: read-out: Stability
[24] = AUC (0 to 24 hrs) in male rat at 100 mg/kg, po after 1 day; format: ADME, organism-based; parameters: time < 24 hr, dose 100 mg/kg, route oral; details: plasma
[25] = Solubility of the compound; format: physicochemical
[26] = Cmax in rat at 5 mg/kg, po; format: ADME, organism-based; parameters: dose 5 mg/kg, route oral; details: in vivo
[27] = Cmin (24 hrs) in female rat at 500 mg/kg, po after 1 day; format: ADME, organism-based; parameters: dose 500 mg/kg, route oral; details: in vivo, read-out: Cmin
[28] = tested on: Caco-2; assay: Efflux ratio of permeability from […] side in human Caco-2 cells after 21 days; format: ADME, cell-based; details: caco-2, 504 h
[29] = Cmax in female rat at 10 mg/kg, po after 1 day; format: ADME, organism-based; parameters: dose 10 mg/kg, route oral; details: in vivo
[30] = AUC (0 to 24 hrs) in female rat at 500 mg/kg, po after 1 day; format: ADME, organism-based; parameters: time < 24 hr, dose 500 mg/kg, route oral; details: plasma
[31] = AUC (0 to 24 hrs) in male rat at 10 mg/kg, po after 1 day; format: ADME, organism-based; parameters: time < 24 hr, dose 10 mg/kg, route oral; details: plasma
[32] = Cmax in female rat at 100 mg/kg, po after 7 days; format: ADME, organism-based; parameters: dose 100 mg/kg, route oral; details: in vivo
[33] = Cmax in male rat at 100 mg/kg, po after 1 day; format: ADME, organism-based; parameters: dose 100 mg/kg, route oral; details: in vivo
[34] = Half life in dog at 1 mg/kg, po; format: ADME, organism-based, Canis lupus familiaris; parameters: dose 1 mg/kg, route oral; details: in vivo
[35] = Cmax in dog at 1 mg/kg, iv; format: ADME, organism-based, Canis lupus familiaris; parameters: dose 1 mg/kg, route intravenous; details: in vivo
[36] = Cmin (24 hrs) in female rat at 100 mg/kg, po after 1 day; format: ADME, organism-based; parameters: dose 100 mg/kg, route oral; details: in vivo, read-out: Cmin
[37] = Cmax in male rat at 10 mg/kg, po after 7 days; format: ADME, organism-based; parameters: dose 10 mg/kg, route oral; details: in vivo
[38] = Cmax in male rat at 100 mg/kg, po after 7 days; format: ADME, organism-based; parameters: dose 100 mg/kg, route oral; details: in vivo
[39] = AUC in male rat at 100 mg/kg, po after 7 days; format: ADME, organism-based; parameters: dose 100 mg/kg, route oral; details: plasma
[40] = Cmax in female dog at 2 mg/kg, po dosed as normal particles; format: ADME, organism-based, Canis lupus familiaris; parameters: dose 2 mg/kg, route oral; details: in vivo
[41] = tested on: Hepatitis C virus; assay: Inhibition of HCV genotype 1b isolate con1 NS5B polymerase assessed as incorporation of radiolabeled nucleotide into RNA product; parameters: species or system Hepacivirus hominis
[42] = Half life in dog at 1 mg/kg, iv; format: ADME, organism-based, Canis lupus familiaris; parameters: dose 1 mg/kg, route intravenous; details: in vivo
[43] = tested on: Hepatitis C virus; assay: Antiviral activity against HCV genotype 1b isolate con1 infected in human 2209-23 cells assessed as inhibition of [3H]thymidine incorporation into DNA by scintillation proximity assay in presence of 5% fetal bovine serum; format: functional, organism-based, Hepacivirus hominis; details: isolate Con1, 2209-23
[44] = AUC in male rat at 10 mg/kg, po after 7 days; format: ADME, organism-based; parameters: dose 10 mg/kg, route oral; details: plasma
[45] = Cmin (24 hrs) in male rat at 500 mg/kg, po after 1 day; format: ADME, organism-based; parameters: dose 500 mg/kg, route oral; details: in vivo, read-out: Cmin
[46] = Cmax in dog at 1 mg/kg, po; format: ADME, organism-based, Canis lupus familiaris; parameters: dose 1 mg/kg, route oral; details: in vivo
[47] = AUC in female rat at 500 mg/kg, po after 7 days; format: ADME, organism-based; parameters: dose 500 mg/kg, route oral; details: plasma
[48] = AUC (0 to 24 hrs) in female rat at 100 mg/kg, po after 1 day; format: ADME, organism-based; parameters: time < 24 hr, dose 100 mg/kg, route oral; details: plasma
[49] = Cmax in male rat at 10 mg/kg, po after 1 day; format: ADME, organism-based; parameters: dose 10 mg/kg, route oral; details: in vivo
[50] = Cmax in female dog at 2 mg/kg administered intraduodenally as cannula dose; format: ADME, organism-based, Canis lupus familiaris; parameters: dose 2 mg/kg, route intraduodenal; details: in vivo
[51] = tested on: Hepatocyte; assay: Metabolic stability in rat hepatocytes assessed per 10^6 cells; format: ADME, cell-based
[52] = Toxicity in rat assessed as adverse effects after 7 days; format: organism-based; details: in vivo
[53] = AUC in male rat at 500 mg/kg, po after 7 days; format: ADME, organism-based; parameters: dose 500 mg/kg, route oral; details: plasma
[54] = Cmax in female rat at 500 mg/kg, po after 1 day; format: ADME, organism-based; parameters: dose 500 mg/kg, route oral; details: in vivo
[55] = Cmax in male rat at 500 mg/kg, po after 1 day; format: ADME, organism-based; parameters: dose 500 mg/kg, route oral; details: in vivo
[56] = Cytotoxicity against human 2209-23 cells by WST1 assay; format: cell-based
[57] = AUC in female rat at 10 mg/kg, po after 7 days; format: ADME, organism-based; parameters: dose 10 mg/kg, route oral; details: plasma
[58] = Cmax in female rat at 500 mg/kg, po after 7 days; format: ADME, organism-based; parameters: dose 500 mg/kg, route oral; details: in vivo

Cc1cc(Cn2c(=O)c(C3=CS(=O)(=O)c4cc(NS(C)(=O)=O)ccc4N3)c(O)c3cc(F)ccc32)ccc1F
Kp at 24 h [1]: 10 | half-life [2]: 1.1 h | concentration at 6 h [3]: 22 ng/g | pEC50 [4]: 7.06 | Cmax [5]: 152 ng/mL | clearance [6]: 19 mL/min/kg | concentration at 24 h [7]: 2.8 ng/mL | Cmax [8]: 13 ng/mL | fold change (FC) [9]: 9.2 | Cmax [10]: 130 ng/mL | Cmax [11]: 2.8 ng/mL | AUC at 168 h [12]: 299 ng·h/mL | concentration at 2 h [13]: 151 ng/g | AUC [14]: 954 ng·h/mL | AUC(0-t) at 24 h [15]: 25.6 ng·h/mL | AUC [16]: 158 ng·h/mL | clearance [17]: 186 mL/min/kg | Cmax [18]: < 15 ng/mL | fraction unbound [19]: 0.002 | AUC(0-t) at 24 h [20]: 821 ng·h/mL | AUC [21]: 34.8 ng·h/mL | microsomal CLint [22]: 24 µL/min/mg | microsomal CLint [23]: 126 µL/min/mg | AUC(0-t) at 24 h [24]: 223 ng·h/mL | solubility [25]: 6.7 µg/mL (≈ 11.7 µM) | Cmax [26]: 2 ng/mL | concentration at 24 h [27]: 1.3 ng/mL | Ratio [28]: 3.78 | Cmax [29]: 3.26 ng/mL | AUC(0-t) at 24 h [30]: 701 ng·h/mL | AUC(0-t) at 24 h [31]: 25.4 ng·h/mL | Cmax [32]: 15.8 ng/mL | Cmax [33]: 20.4 ng/mL | half-life [34]: 1.2 h | Cmax [35]: 4350 ng/mL | concentration at 24 h [36]: 2.1 ng/mL | Cmax [37]: 2.76 ng/mL | Cmax [38]: 21.1 ng/mL | AUC at 168 h [39]: 322 ng·h/mL | Cmax [40]: < 15 ng/mL | pIC50 [41]: 7.89 | half-life [42]: 1.6 h | pEC50 [43]: 7.64 | AUC at 168 h [44]: 34.4 ng·h/mL | concentration at 24 h [45]: 11.3 ng/mL | Cmax [46]: 10.6 ng/mL | AUC at 168 h [47]: 1470 ng·h/mL | AUC(0-t) at 24 h [48]: 116 ng·h/mL | Cmax [49]: 2.06 ng/mL | Cmax [50]: < 15 ng/mL | Stability [51]: 1.6 µL/min | NOAEL at 168 h [52]: > 500 mg/kg/day | AUC at 168 h [53]: 1910 ng·h/mL | Cmax [54]: 48.2 ng/mL | Cmax [55]: 93.2 ng/mL | CC50 [56]: > 50000 nM | AUC at 168 h [57]: 21.2 ng·h/mL | Cmax [58]: 89.3 ng/mL
